Assay results as given in patent US4217345A, “3-0-(β-D-Glucuronopyranosyl)-soyasapogenol B” (Otsuka Pharmaceutical Co., Ltd., priority 1978, dated 1980).
Several values for one entry are separate records, joined by “and”; a condition that tells them apart may be missing. Identical values can stand only once.

How the values were obtained:
[1] = tested on: hereditary angioneurotic edema; settings: known complement inhibitors; cited from earlier work
complement = experiment: Anticomplementary activity: inhibition of hemolysis of sensitized erythrocytes (EA); type: biochemical, guinea pig; settings: for Anticomplementary Activity (50% hemolysis inhibitory activity value): guinea pig complement serum diluted 150 times, 60 minutes
Method: The anticomplementary activity of the test compounds above was measured and confirmed by the testing method described in Meneki Kagaku (Immuno-Chemistry), Yuichi Yamamura et al., Ed. Asakura Shoten, Tokyo, Japan (1973) pages 830-834. Specifically, a test tube was charged with 0.5 ml of an aqueous dispersion of each of the test compounds, 0.5 ml of sensitized erythrocytes (EA) containing 1×10^8 cells/ml, 1 ml of a 5-fold diluted solution of a Veronal buffer solution containing isotonic gelatin (This 5-fold diluted solution is termed GVB^++ for brevity), and 0.5 ml of complement serum (guinea pig complement) diluted 150 times with the GVB^++. The mixture was maintained for 60 minutes. Then, 5 ml of an ice-fold physiological saline solution was added thereto and the mixture was centrifuged.

mice = experiment: Acute toxicity (LD50) in mice; type: in vivo; settings: intraperitoneal administration
Method: (§1) The actute toxicity (LD50 mg/kg) of the test compounds was determined on mice by intraperitoneal administration in the case of Compound A and intravenous administration in the case of Compound B.

Heymann-Type Nephritis = experiment: Therapeutic effects on Heymann-type nephritis: proteinuria level; type: in vivo, Male Wistar rats; settings: for Proteinuria Level: individual rat, listed as Compound of Invention
Method: Male Wistar rats with a body weight of 180 to 200 g were used in the test. Rat kidney cortex was extracted, and homogenized with an equal quantity by volume of a physiological saline solution. The homogenate was centrifuged at 1,500 G for 1 hour. The supernatant liquid was purified in accordance with the method of T. S. Edgington et al., Journal of Experimental Medicine, 127, 555 (1968), and mixed with Freund's complete adjuvant 37 Ra (a product of Difco Company) in a volume ratio of 0.4:1. The resulting mixture was injected intraperitoneally into isologous rats in an amount of 0.5 ml per rat. And then the same amount of its mixture was administered every 2 weeks until the proteinuria level exceeded 100 mg/day. (This period was about 6 to 8 weeks.)
Each of the test compounds was intraperitoneally administered to the rats affected with Heymann-type nephritis (with a body weight of 300 to 350 g) once a day for 7 days, and then the amount of proteinuria (mg/day) was measured in the same manner as described above. Physiological saline solution was used as a control.

[2] = tested on: Nephrotoxin-Type Nephritis; experiment: Therapeutic effect on nephrotoxin-type nephritis: proteinuria level; type: in vivo, male Wistar rats; settings: for Proteinuria Level, Average: 3 mg/body i.p. for seven days; for Proteinuria Level: 3 mg/body i.p. once every 24 hours for seven days, individual rat, listed as Compound of Invention
Method: Rat nephrotoxin ("NT" for brevity) was obtained as described below.
Rat kidney cortex was homogenized with an equal quantity of physiological saline. The homogenized mixture was mixed with Freund's complete adjuvant (a product of Difco Company) in a volume ratio of 1:1. 2 ml of the resulting mixture was intramuscularly injected into a rabbit (body weight 3,100 g) to immunize the rabbit. A month and a half later, blood was taken from the heart of the rabbit and serum was obtained. The resulting serum was inactivated at 56° C. for 30 minutes, then salted out with a 40% saturated aqueous solution of ammonium sulfate, and fractionated. The γ-globulin (IgG) fraction was collected to obtain NT.
The therapeutic evaluation was carried out using male Wistar rats with a body weight of 150 to 160 g with three replications for each test compound. The test compound was intraperitoneally administered once every 24 hours for seven days. One hour after the administration of the test compound on the third day, the NT was applied. The NT was intravenously injected in an amount of 1 ml at a tail vein of each rat. Physiological saline solution was used as a control.
The proteinuria level (total amount excreted into the urine over a 24 hour period) was measured using turbidometry employing bovine serum albumin as a control by means of sulfosalicylic acid.

plasmin = settings: cited from earlier work
Kallikrein = settings: cited from earlier work
[3] = Acute toxicity (LD50) in mice; type: in vivo; settings: mouse, in vivo, intravenous administration
Method: as §1

thrombin = settings: cited from earlier work
urokinase = settings: cited from earlier work
complements = settings: cited from earlier work

SMILES: NC[C@H]1CC[C@H](C(=O)O)CC1 [tranexamic acid]
- use in the treatment of hereditary angioneurotic edema [1]: used with success

SMILES: CC1(C)C[C@@H](O)[C@]2(C)CC[C@]3(C)C(=CC[C@@H]4[C@@]5(C)CC[C@H](O[C@@H]6O[C@H](C(=O)O)[C@@H](O)[C@H](O)[C@H]6O)[C@@](C)(CO)[C@@H]5CC[C@]43C)[C@@H]2C1 [Compound A, 3-O-(β-D-glucuronopyranosyl)-soyasapogenol B]
- anticomplementary activity (in words) (complement): potent anticomplementary activity
- Anticomplementary Activity (50% hemolysis inhibitory activity value) (complement): 5 µg/mL
- Acute Toxicity LD50 (mice): Above 300 mg/kg
- Proteinuria Level, Average (Heymann-Type Nephritis; Before Administration, 3 mg/body i.p. group, average of 3 rats (control 129)): 123 mg/day
- Proteinuria Level (Heymann-Type Nephritis; Before Administration, 3 mg/body i.p. group): 117 mg/day and 129 mg/day and 123 mg/day
- Proteinuria Level, Average (Heymann-Type Nephritis; Day 1, 3 mg/body i.p. once a day for 7 days, average of 3 rats (control 116)): 112 mg/day
- Proteinuria Level (Heymann-Type Nephritis; Day 1, 3 mg/body i.p. once a day for 7 days): 89 mg/day and 127 mg/day and 119 mg/day
- Proteinuria Level, Average (Heymann-Type Nephritis; Day 4, 3 mg/body i.p. once a day for 7 days, average of 3 rats (control 131)): 58 mg/day
- Proteinuria Level (Heymann-Type Nephritis; Day 4, 3 mg/body i.p. once a day for 7 days): 42 mg/day and 75 mg/day and 58 mg/day
- Proteinuria Level, Average (Heymann-Type Nephritis; Day 7, 3 mg/body i.p. once a day for 7 days, average of 3 rats (control 122)): 28 mg/day
- Proteinuria Level (Heymann-Type Nephritis; Day 7, 3 mg/body i.p. once a day for 7 days): 27 mg/day and 39 mg/day and 18 mg/day
- Proteinuria Level, Average (Heymann-Type Nephritis; Day 14, 3 mg/body i.p. once a day for 7 days, average of 3 rats (control 119)): 3 mg/day
- Proteinuria Level (Heymann-Type Nephritis; Day 14, 3 mg/body i.p. once a day for 7 days): 3 mg/day and 17 mg/day and 9 mg/day
- Proteinuria Level, Average (Heymann-Type Nephritis; Day 21, 3 mg/body i.p. once a day for 7 days, average of 3 rats (control 109)): 9 mg/day
- Proteinuria Level (Heymann-Type Nephritis; Day 21, 3 mg/body i.p. once a day for 7 days): 8 mg/day and 13 mg/day and 7 mg/day
- Proteinuria Level, Average ([2]; Day 1, average of 3 rats (control 15)): 3.2 mg/day
- Proteinuria Level ([2]; Day 1): 1.9 mg/day and 5.3 mg/day and 2.5 mg/day
- Proteinuria Level, Average ([2]; Day 4, average of 3 rats (control 20)): 2.3 mg/day
- Proteinuria Level ([2]; Day 4): 1.2 mg/day and 2.9 mg/day and 2.7 mg/day
- Proteinuria Level, Average ([2]; Day 7, average of 3 rats (control 23)): 1.3 mg/day
- Proteinuria Level ([2]; Day 7): 0.9 mg/day and 1.8 mg/day and 1.1 mg/day
- Proteinuria Level, Average ([2]; Day 10, average of 3 rats (control 33)): 9.7 mg/day
- Proteinuria Level ([2]; Day 10): 7 mg/day and 13 mg/day and 9 mg/day

SMILES: CC1(C)[C@@H](O[C@H]2O[C@H](C(=O)O)[C@@H](O)[C@H](O)[C@H]2O[C@@H]2O[C@H](C(=O)O)[C@@H](O)[C@H](O)[C@H]2O)CC[C@]2(C)[C@H]3C(=O)C=C4[C@@H]5C[C@@](C)(C(=O)O)CC[C@]5(C)CC[C@@]4(C)[C@]3(C)CC[C@@H]12 [Compound B, Glycyrrhizin]
- inhibitory activity against plasmin (plasmin): inhibitory activity
- inhibitory activity against Kallikrein (Kallikrein): inhibitory activity
- Anticomplementary Activity (50% hemolysis inhibitory activity value) (complement): 500-1,000 γ/ml
- LD50 [3]: > 300 mg/kg
- inhibitory activity against thrombin (thrombin): inhibitory activity
- inhibitory activity against urokinase (urokinase): inhibitory activity
- inhibitory activity against complements (complements): inhibitory activity

SMILES: Cc1ccc(C(=O)Nc2ccc(S(=O)(=O)O)c3cc(S(=O)(=O)O)cc(S(=O)(=O)O)c23)cc1NC(=O)c1cccc(NC(=O)Nc2cccc(C(=O)Nc3cc(C(=O)Nc4ccc(S(=O)(=O)O)c5cc(S(=O)(=O)O)cc(S(=O)(=O)O)c45)ccc3C)c2)c1 [Suramin Sodium]
- use in the treatment of hereditary angioneurotic edema [1]: used with success

SMILES: NCCCCCC(=O)O [epsilon-aminocaproic acid]
- use in the treatment of hereditary angioneurotic edema [1]: used with success
